Source: patent US8338475B2, “Anti-proliferative pharmaceutical composition” (BioCis Pharma Oy, priority 2003, dated 2012)

What was measured:
[1] = system: WM 266-4 (cutaneous melanoma); experiment: Proliferation assay (CellTiter 96), WM266-4 cells; format: cell-based, human
Experimental: (§1) The cells were cultured in triplicate with or without 2 μM camptothecin (CPT) or 10 mM cis-UCA in a density of 15,000 cells per […]. A, Cells taken from normal pH 7.4 cultures to test conditions at pH 6.5. B, Cells cultured in low pH 6.7 adaptation medium for 3 d, then tested at pH 6.5. C, Cells cultured and tested at pH 7.4.
(§2) Transformed tumour cell lines WM 266-4 and A2058 (cutaneous melanoma), HT-1080 (epithelial fibrosarcoma), HeLa (epithelial adenocarcinoma of cervix), HK293 (kidney epithelial cells) and non-transformed cell line HSF (skin fibroblast from a healthy volunteer donor) of human origin have been described earlier (Li et al. 2003). The K562 (chronic myelogenous leukemia) cells were purchased from American Type Culture Collection.
(§3) The cells were maintained in logarithmic growth phase in IMDM medium (Invitrogen, Paisley, UK) supplemented with 10% fetal calf serum and antibiotics in a humidified incubator at +37° C., 5% CO2. The adherent cells lines were harvested for experiments with 0.25% trypsin-EDTA in PBS for 5 min and then resuspended and washed in medium. After counting of viable cells, 15,000 to 75,000 cells were transferred into flat-bottom 96-well cell culture plates in a volume of 100 or 150 μl.
(§4) The proliferation activity of cultured cell lines was quantified in flat-bottom 96-well plates with a modified colorimetric assay based on a tetrazolium derivative (CellTiter 96 Aqueous One Solution Cell Proliferation Assay, Promega). The cells were cultured in the presence of camptothecin and/or cis-UCA for 20 to 92 h, then the proliferation reagent was added for 2 h, and the absorbance at 490 nm was measured in a plate reader. Blank absorption values in wells containing medium without cells were subtracted before comparison analysis.
(§5) The cell lines were tested in a 44-h culture at pH 6.5 with or without 2 μM camptothecin and 10 mM cis-UCA at 15,000 cells per 100 μl total volume. […] In order to further characterise the effective anti-proliferative concentration range of cis-UCA, proliferation was measured in a 44-h assay at pH 6.5 with cis-UCA concentration ranging from 30 μM to 30 mM.

[2] = system: caspase-3; experiment: Determination of caspase-3 activity in A2058 melanoma cells; format: cell-based, human; settings: 30 mM cis-UCA in pH 6.5 medium, at 2 h
Experimental: The cells were allowed to attach to culture flasks at 5×10^6 cells per 7 ml of medium overnight. The medium was then changed to new medium adjusted to pH 6.5 with or without 30 mM cis-UCA. The cells were incubated for 30 min to 18 h, released with trypsin-EDTA, and lysed for caspase-3 assay. After subtracting the blank values, the mean caspase-3 activity from the cis-UCA-treated cells was divided by the mean value from the corresponding control cells with the same incubation time. The data are the mean±SD from three parallel reactions in the caspase-3 assay.
Caspase-3 is a proteolytic enzyme that has a central role in the apoptotic cascade. The colorimetric assay is based on the hydrolysis of the peptide substrate acetyl-Asp-Glu-Val-Asp p-nitroanilide (Ac-DEVD-pNA) by caspase-3, resulting in the release of p-nitroaniline (pNA).
Cells grown in normal medium were counted and divided into separate cell culture flasks containing 1 μM CPT, 10 mM cis-UCA, or both, in pH 6.5 medium. […] Caspase-3 activity was measured in cell lysates. […] After washing with ice-cold PBS, the counted cells were resuspend in cell lysis buffer (50 mM Hepes, pH 7.4, 5 mM CHAPS, and 5 mM dithiotreitol) in a density of 10^8 cells/ml, incubated on ice for 15-20 min, and the cell lysates pelleted at 15,000×g for 20 min at 4° C. […] Absorbance of the formed end product p-nitroaniline (pNA) was recorded at 405 nm after 2 and 17 h.

[3] = system: A2058 (cutaneous melanoma); experiment: Proliferation assay (CellTiter 96), A2058 cells; format: cell-based, human
Experimental: as §1
Proliferation was measured in a 44-h assay at pH 6.5 with 30 μM to 30 mM cis-UCA and 2 μM camptothecin. Both proliferation (A) and calculated percentage inhibition data (B) are presented.
as §2, §3, §4, §5

[4] = system: HK293 (kidney epithelial cells); experiment: Proliferation assay (CellTiter 96), HK293 cells; format: cell-based, human; settings: pH 6.5, 44 h, cis-UCA 10 mM, CPT 2 μM, 15,000 cells per 100 μl
From the text: as §2, §3
as §4, with “Blank absorption values in wells containing medium without cells were subtracted before comparison analysis.” left out

[5] = system: human polymorphonuclear neutrophils; settings: extracellular pH range 6.1 to 7.0; patent application US2006035973; cited from earlier work
[6] = system: HeLa (epithelial adenocarcinoma of cervix); experiment: Proliferation assay (CellTiter 96), HeLa cells; format: cell-based, human; settings: pH 6.5, 44 h, cis-UCA 10 mM, CPT 2 μM, 15,000 cells per 100 μl
From the text: as §2, §3
as §4, with “Blank absorption values in wells containing medium without cells were subtracted before comparison analysis.” left out

[7] = system: HSF (skin fibroblast); experiment: Proliferation assay (CellTiter 96), HSF cells; format: cell-based, human; settings: pH 6.5, 44 h, cis-UCA 10 mM, CPT 2 μM, 15,000 cells per 100 μl
From the text: as §2, §3
as §4, with “Blank absorption values in wells containing medium without cells were subtracted before comparison analysis.” left out

[8] = system: K562 (chronic myelogenous leukemia); experiment: Proliferation assay (CellTiter 96), K562 cells; format: cell-based, human; settings: pH 6.5, 44 h, cis-UCA 10 mM, CPT 2 μM, 15,000 cells per 100 μl
From the text: as §2, §3
as §4, with “Blank absorption values in wells containing medium without cells were subtracted before comparison analysis.” left out

[9] = cited from earlier work
[10] = system: cell lines; experiment: Proliferation assay, statements on the cell lines as a group; format: cell-based, human; settings: all three studied transformed cell lines; 44 h; pH 6.5 (FIG. 4)
Experimental: The cells were cultured for 44 h with or without 2 μM camptothecin (CPT) at pH 6.5 or 7.4 conditions. After a 2-h incubation with the proliferation assay reagent, the absorbance at 490 nm was recorded. Cells were cultured in a density of 15,000 cells (K562, HT-1080, HK293) or 75,000 cells (the other cells) in a volume of 150 μl.
Three cell lines were cultured with cis-UCA and/or 1 μM camptothecin at a density of […] per well (100 μl) for 44 h in pH 6.5 medium. Blank wells with all the cis-UCA concentrations but without cells were included and their absorbance subtracted from those of the corresponding test wells.
as §2, with “The K562 (chronic myelogenous leukemia) cells were purchased from American Type Culture Collection.” left out
as §4, with “Blank absorption values in wells containing medium without cells were subtracted before comparison analysis.” left out

[11] = system: HT-1080 (epithelial fibrosarcoma); experiment: Proliferation assay (CellTiter 96), HT-1080 cells; format: cell-based, human; settings: pH 6.5, 44 h, cis-UCA 10 mM, CPT 2 μM, 15,000 cells per 100 μl
From the text: as §2, §3
as §4, with “Blank absorption values in wells containing medium without cells were subtracted before comparison analysis.” left out

[12] = 10 mM cis-UCA alone, cells from pH 7.4 cultures tested at pH 6.5, 92 h (FIG. 2A)
[13] = 10 mM cis-UCA, cells adapted to pH 6.7 for 3 days, tested at pH 6.5, 92 h (FIG. 2B)
[14] = pH 6.5, 44 h, cis-UCA 10 mM, CPT 2 μM, 15,000 cells per 100 μl

## O=C(O)/C=C\c1c[nH]cn1 [cis-UCA, cis-urocanic acid]
[1]; [12]
  percentage inhibition of proliferation: 36%
[1]; [13]
  percentage inhibition of proliferation: 28%
[1]; [14]
  Inhibition of proliferation (mean percentage inhibition ± SD compared with untreated control): 20 ± 0.6%
[2]
  peak caspase-3 activity compared to cells treated with pH 6.5 medium only: 380%
[3]; [12]
  percentage inhibition of proliferation: 83%
[3]; [13]
  percentage inhibition of proliferation: 87%
[3]; 44-h assay at pH 6.5, 30 μM to 30 mM tested (FIG. 3)
  concentration required to produce measurable inhibition of proliferation: at least 3 mM
[3]; [14]
  Inhibition of proliferation (mean percentage inhibition ± SD compared with untreated control): 45 ± 4.4%
[4]
  Inhibition of proliferation (mean percentage inhibition ± SD compared with untreated control): 22 ± 0.1%
[5]
  effect on the intracellular pH of neutrophils: affected the intracellular pH
[6]
  Inhibition of proliferation (mean percentage inhibition ± SD compared with untreated control): 50 ± 1.7%
[7]
  Inhibition of proliferation (mean percentage inhibition ± SD compared with untreated control): 41 ± 1.1%
[8]
  Inhibition of proliferation (mean percentage inhibition ± SD compared with untreated control): 26 ± 2.9%
[9]; Roberts et al. 1982, Krien & Kermici 2000
  second pKa (imidazolyl group): 7.0
[9]; Roberts et al. 1982
  first pKa (carboxyl group): 3.3
[10]
  concentration at which proliferation was inhibited: ≥ 3 mM
[11]
  Inhibition of proliferation (mean percentage inhibition ± SD compared with untreated control): 47 ± 0.5%
